What was measured:
Test in all cases: relative viability (nuclei count vs DMSO), 5 days (fraction); higher = more cells survive
[1] = compound: CNC(=O)c1ccccc1Sc1ccc2c(/C=C/c3ccccn3)n[nH]c2c1 [Axitinib] + Cc1cc(Nc2cc(N3CCN(C)CC3)nc(Sc3ccc(NC(=O)C4CC4)cc3)n2)n[nH]1 [Tozasertib] (partner 0.1 µM)
Summary of the method: (§1)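 Lung cancer cell lines were pin-tool dosed in 1536-well plates on the day after seeding, with either a lone drug or a fixed anchor-drug dose plus five library-drug doses (not always all listed) in √10 steps. Nuclei were counted on 4× images after 5 days. Relative viability is the ratio of treated-well to vehicle-well nuclei counts, with each value a median of duplicate plates.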

[2] = compound: Nc1nc(Nc2ccc3c(c2)CC[C@@H](N2CCCC2)CC3)nn1-c1cc2c(nn1)-c1ccccc1CCC2 [Bemcentinib] + Nc1ncn([C@H]2C[C@H](O)[C@@H](CO)O2)c(=O)n1 [Decitabine] (partner 2 µM)
Summary of the method: as §1

[3] = compound: Nc1nc(Nc2ccc3c(c2)CC[C@@H](N2CCCC2)CC3)nn1-c1cc2c(nn1)-c1ccccc1CCC2 [Bemcentinib] + CC(=O)c1c(C)c2cnc(Nc3ccc(N4CCNCC4)cn3)nc2n(C2CCCC2)c1=O [Palbociclib] (partner 0.5 µM)
Summary of the method: as §1

[4] = compound: Nc1nc(Nc2ccc3c(c2)CC[C@@H](N2CCCC2)CC3)nn1-c1cc2c(nn1)-c1ccccc1CCC2 [Bemcentinib] + Cc1nc(NC(=O)N2CCC[C@H]2C(N)=O)sc1-c1ccnc(C(C)(C)C(F)(F)F)c1 [Alpelisib] (partner 2 µM)
Summary of the method: as §1

| Cell Line | relative viability ([1]; first compound 0.005 µM) | relative viability ([1]; first compound 0.01581 µM) | relative viability ([1]; first compound 0.05 µM) | relative viability ([1]; first compound 0.1581 µM) | relative viability ([1]; first compound 0.5 µM) | relative viability ([2]; first compound 0.04 µM) | relative viability ([2]; first compound 0.1265 µM) | relative viability ([2]; first compound 0.4 µM) | relative viability ([2]; first compound 1.265 µM) | relative viability ([2]; first compound 4 µM) | relative viability ([3]; first compound 0.04 µM) | relative viability ([3]; first compound 0.1265 µM) | relative viability ([3]; first compound 0.4 µM) | relative viability ([3]; first compound 1.265 µM) | relative viability ([3]; first compound 4 µM) | relative viability ([4]; first compound 0.04 µM) | relative viability ([4]; first compound 0.1265 µM) | relative viability ([4]; first compound 0.4 µM) | relative viability ([4]; first compound 1.265 µM) | relative viability ([4]; first compound 4 µM) |
| --- | --- | --- | --- | --- | --- | --- | --- | --- | --- | --- | --- | --- | --- | --- | --- | --- | --- | --- | --- | --- |
| COR-L 105 | 0.356 | 0.422 | 0.331 | 0.438 | 0.364 | 0.593 | 0.721 | 0.678 | 0.67 | 0.667 | 0.385 | 0.381 | 0.412 | 0.377 | 0.396 | 1.05 | 0.949 | 1.03 | 0.931 | 0.895 |
| NCI-H838 | 0.305 | 0.263 | 0.265 | 0.323 | 0.323 | 0.483 | 0.484 | 0.497 | 0.47 | 0.517 | 0.226 | 0.249 | 0.221 | 0.205 | 0.243 | 0.961 | 1.19 | 1.08 | 1.01 | 1.04 |
| NCI-H2170 | 0.72 | 0.63 | 0.768 | 0.774 | 0.838 | 0.457 | 0.48 | 0.463 | 0.519 | 0.479 | 0.394 | 0.415 | 0.395 | 0.422 | 0.407 | 0.844 | 0.766 | 0.842 | 1.01 | 0.882 |
| EKVX | 0.41 | 0.492 | 0.358 | 0.347 | 0.341 | 0.325 | 0.345 | 0.292 | 0.345 | 0.39 | 0.333 | 0.362 | 0.427 | 0.427 | 0.405 | 0.913 | 1.01 | 0.929 | 0.973 | 0.972 |
| RERF-LC-KJ | 0.458 | 0.485 | 0.535 | 0.573 | 0.52 | 0.676 | 0.729 | 0.784 | 0.855 | 0.752 | 0.964 | 1.07 | 1.05 | 1.24 | 1.18 | 0.748 | 0.785 | 0.91 | 0.859 | 0.919 |
| LK-2 | 0.176 | 0.161 | 0.198 | 0.162 | 0.174 | 0.214 | 0.374 | 0.342 | 0.23 | 0.313 | 0.78 | 0.75 | 0.934 | 0.728 | 0.665 | 1.1 | 1.22 | 1.27 | 1.15 | 1.31 |
| NCI-H1666 | 0.684 | 0.638 | 0.643 | 0.7 | 0.706 | 0.618 | 0.872 | 0.722 | 0.592 | 0.632 | 0.656 | 0.645 | 0.675 | 0.683 | 0.672 | 0.869 | 1.05 | 0.941 | 1.02 | 1.02 |
| LCLC-103H | 0.52 | 0.551 | 0.432 | 0.52 | 0.519 | 0.739 | 0.735 | 0.738 | 0.812 | 0.764 | 0.459 | 0.438 | 0.522 | 0.497 | 0.554 | 0.957 | 0.941 | 1.05 | 1.06 | 1.16 |
| NCI-H1755 | 0.608 | 0.541 | 0.605 | 0.632 | 0.617 | 0.724 | 0.671 | 0.726 | 0.674 | 0.718 | 0.43 | 0.462 | 0.425 | 0.479 | 0.439 | 0.98 | 1.03 | 1.02 | 1.06 | 1.04 |
| NCI-H520 | 0.401 |  | 0.439 | 0.417 | 0.347 | 0.515 | 0.593 | 0.511 | 0.499 | 0.512 | 0.235 | 0.198 | 0.265 | 0.221 | 0.352 | 0.917 | 1.11 | 1.2 | 1.01 | 0.919 |
| PC-14 | 0.6 |  | 0.553 | 0.558 | 0.758 | 0.209 | 0.213 | 0.204 | 0.176 | 0.197 | 0.588 | 0.51 | 0.737 | 0.596 | 0.485 | 0.995 | 1.01 | 0.925 | 0.985 | 1.04 |
| NCI-H2405 | 0.773 | 0.795 | 0.853 | 0.785 | 1 | 0.74 | 0.717 | 0.799 | 0.821 | 0.761 | 0.555 | 0.549 | 0.528 | 0.59 | 0.583 | 0.728 | 0.732 | 0.847 | 0.756 | 0.72 |
| NCI-H1395 | 0.739 | 0.883 | 0.725 | 0.682 | 0.764 |  | 0.683 | 0.757 | 0.737 | 0.745 |  | 0.621 | 0.645 | 0.64 | 0.631 | 1 | 1.26 | 1.12 | 1.03 | 1.29 |

From the supplement of paper PMC10307832
